This test concerns the target T1, human RORγ-LBD (Homo sapiens, UniProt P51449).
T1 construct: made in house; host or cells: E. coli (BL-21)
T1 sequence (P51449 262-518): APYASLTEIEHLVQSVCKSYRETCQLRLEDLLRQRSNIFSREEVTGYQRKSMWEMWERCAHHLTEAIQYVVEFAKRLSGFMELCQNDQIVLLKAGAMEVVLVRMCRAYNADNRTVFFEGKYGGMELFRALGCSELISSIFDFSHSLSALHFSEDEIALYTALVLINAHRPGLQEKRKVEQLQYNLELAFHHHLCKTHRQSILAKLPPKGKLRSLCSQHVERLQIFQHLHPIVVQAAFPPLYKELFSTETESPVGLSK
Put plainly: ROR gamma coactivator peptide recruitment Alphascreen assay (RORγ-LBD binding to GRIP1 coactivator peptide). The class given is biochemical. The note with it: 5 nM human RORγ-LBD, 30 nM 7-β-hydroxycholesterol, 50 nM biotinylated GRIP1 coactivator peptide, overnight incubation at room temperature; read-out: result (pIC50, RORγ coactivator peptide recruitment Alphascreen assay) (converted). Put shortly: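 His/Flag-tagged human RORγ-LBD (aa 262-518, E. coli-expressed, 5 nM) with agonist 7-β-hydroxycholesterol (30 nM) and biotinylated GRIP1 LXXLL peptide (50 nM) in HEPES pH 7.4 buffer, 2.5% DMSO. Compound 1-in-2 dilutions; Alphascreen bead signal read after overnight incubation at room temperature; pIC50 calculated.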
A general note: Alpha assays give light when donor and acceptor beads are brought close together.
In the case of `CC1(C)CC(CN(CCc2c(Cl)cncc2Cl)C(=O)c2cnn([C@H]3CC[C@](C)(C(=O)O)CC3)c2C(F)(F)F)C1` [Example 556, trans-4-(4-((2-(3,5-dichloro-4-pyridinyl)ethyl)((3,3-dimethylcyclobutyl)methyl)carbamoyl)-5-(trifluoromethyl)-1H-pyrazol-1-yl)-1-methylcyclohexanecarboxylic acid], the IC50 was 2.4 nM. As for `CC1(CN(CCc2c(Cl)cncc2Cl)C(=O)c2cnn([C@H]3CC[C@H](C(=O)O)CC3)c2C(F)(F)F)CCCC1` [Example 557, trans-4-(4-((2-(3,5-dichloro-4-pyridinyl)ethyl)((1-methylcyclopentyl)methyl)carbamoyl)-5-(trifluoromethyl)-1H-pyrazol-1-yl)cyclohexanecarboxylic acid], the figure is 2.82 nM; as for `CC1(C)[C@@H]2C[C@H](N(CC(=O)c3c(Cl)cncc3Cl)C(=O)c3cnn([C@H]4CC[C@](C)(C(=O)O)CC4)c3C(F)(F)F)C[C@@H]21` [Example 558, trans-4-(4-((2-(3,5-dichloro-4-pyridinyl)-2-oxoethyl)((1R,3r,5S)-6,6-dimethylbicyclo[3.1.0]hex-3-yl)carbamoyl)-5-(trifluoromethyl)-1H-pyrazol-1-yl)-1-methylcyclohexanecarboxylic acid], 2.45 nM. With `CC1(C)CC(CN(CC(=O)c2c(Cl)cncc2Cl)C(=O)c2cnn([C@H]3CC[C@](C)(C(=O)O)CC3)c2C(F)(F)F)C1` [Example 559, trans-4-(4-((2-(3,5-dichloro-4-pyridinyl)-2-oxoethyl)((3,3-dimethylcyclobutyl)methyl)carbamoyl)-5-(trifluoromethyl)-1H-pyrazol-1-yl)-1-methylcyclohexanecarboxylic acid], the IC50 is 7.08 nM. For `CC1(CN(CCc2c(Cl)cncc2Cl)C(=O)c2cnn([C@H]3CC[C@@H](C(=O)O)CC3)c2C(F)(F)F)CCC1` [Example 560, cis-4-(4-((2-(3,5-dichloro-4-pyridinyl)ethyl)((1-methylcyclobutyl)methyl)carbamoyl)-5-(trifluoromethyl)-1H-pyrazol-1-yl)cyclohexanecarboxylic acid], the IC50 is 295 nM. Regarding `CC1(CN(CCc2c(Cl)cncc2Cl)C(=O)c2cnn([C@H]3CC[C@](C)(C(=O)O)CC3)c2C(F)(F)F)CCC1` [Example 562, trans-4-(4-((2-(3,5-dichloro-4-pyridinyl)ethyl)((1-methylcyclobutyl)methyl)carbamoyl)-5-(trifluoromethyl)-1H-pyrazol-1-yl)-1-methylcyclohexanecarboxylic acid], the IC50 was 3.72 nM. As for `CC1(CN(CCc2c(Cl)cncc2Cl)C(=O)c2cnn([C@H]3CC[C@@H](C(=O)O)CC3)c2C(F)(F)F)CC1` [Example 563, cis-4-(4-((2-(3,5-dichloro-4-pyridinyl)ethyl)((1-methylcyclopropyl)methyl)carbamoyl)-5-(trifluoromethyl)-1H-pyrazol-1-yl)cyclohexanecarboxylic acid], the figure is 204 nM; as for `CC1(CN(CCc2c(Cl)cncc2Cl)C(=O)c2cnn([C@H]3CC[C@](C)(C(=O)O)CC3)c2C(F)(F)F)CC1` [Example 564, trans-4-(4-((2-(3,5-dichloro-4-pyridinyl)ethyl)((1-methylcyclopropyl)methyl)carbamoyl)-5-(trifluoromethyl)-1H-pyrazol-1-yl)-1-methylcyclohexanecarboxylic acid], 4.17 nM. To `Cc1cc(Cl)c(C(=O)CN(CC2CC3(CC3)C2)C(=O)c2cnn([C@H]3CC[C@@H](C(=O)O)CC3)c2C(F)(F)F)c(Cl)c1` [Example 565, cis-4-(4-((2-(2,6-dichloro-4-methylphenyl)-2-oxoethyl)(spiro[2.3]hex-5-ylmethyl)carbamoyl)-5-(trifluoromethyl)-1H-pyrazol-1-yl)cyclohexanecarboxylic acid] belongs 18.2 nM; to `C[C@]1(C(=O)O)CC[C@H](n2ncc(C(=O)N(CC(=O)c3c(Cl)cccc3Cl)CC3CC4(CC4)C3)c2C(F)(F)F)CC1` [Example 566, trans-4-(4-((2-(2,6-dichlorophenyl)-2-oxoethyl)(spiro[2.3]hex-5-ylmethyl)carbamoyl)-5-(trifluoromethyl)-1H-pyrazol-1-yl)-1-methylcyclohexanecarboxylic acid], 3.09 nM. To `O=C(CN(CC1CC2(CC2)C1)C(=O)c1cnn([C@H]2CC[C@H](C(=O)O)CC2)c1C(F)(F)F)c1c(Cl)cccc1Cl` [Example 567, trans-4-(4-((2-(2,6-dichlorophenyl)-2-oxoethyl)(spiro[2.3]hex-5-ylmethyl)carbamoyl)-5-(trifluoromethyl)-1H-pyrazol-1-yl)cyclohexanecarboxylic acid] belongs 2.4 nM; to `Cc1cc(Cl)c(C(=O)CN(CC(C)(C)C)C(=O)c2cnn([C@H]3CC[C@](C)(C(=O)O)CC3)c2C(F)(F)F)c(Cl)c1` [Example 568, trans-4-(4-((2-(2,6-dichloro-4-methylphenyl)-2-oxoethyl)(2,2-dimethylpropyl)carbamoyl)-5-(trifluoromethyl)-1H-pyrazol-1-yl)-1-methylcyclohexanecarboxylic acid], 3.39 nM; to `C[C@]1(C(=O)O)CC[C@H](n2ncc(C(=O)N(CC(=O)c3c(Cl)cccc3Cl)CC3CCC4(CC3)CC4)c2C(F)(F)F)CC1` [Example 569, trans-4-(4-((2-(2,6-dichlorophenyl)-2-oxoethyl)(spiro[25]oct-6-ylmethyl)carbamoyl)-5-(trifluoromethyl)-1H-pyrazol-1-yl)-1-methylcyclohexanecarboxylic acid], 6760 nM. For `C[C@@H]1C[C@H](n2ncc(C(=O)N(CC(=O)c3c(Cl)cccc3Cl)CC3CC(C)(C)C3)c2C(F)(F)F)CC[C@@H]1C(=O)O` [Example 570, (1S,2R,4R)-4-(4-((2-(2,6-dichlorophenyl)-2-oxoethyl)((3,3-dimethylcyclobutyl)methyl)carbamoyl)-5-(trifluoromethyl)-1H-pyrazol-1-yl)-2-methylcyclohexanecarboxylic acid], the IC50 was 18.6 nM.

Take `Cc1cc(Cl)c(C(=O)CN(CC2(C)CCCCC2)C(=O)c2cnn([C@H]3CC[C@](C)(C(=O)O)CC3)c2C(F)(F)F)c(Cl)c1` [Example 571, trans-4-(4-((2-(2,6-dichloro-4-methylphenyl)-2-oxoethyl)((1-methylcyclohexyl)methyl)carbamoyl)-5-(trifluoromethyl)-1H-pyrazol-1-yl)-1-methylcyclohexanecarboxylic acid]: the IC50 was 1.26 nM. As for `CC(C)(C)CN(C[C@H](O)c1c(Cl)cccc1Cl)C(=O)c1cnn([C@H]2CC[C@H](C(=O)O)CC2)c1C(F)(F)F` [Example 573, trans-4-(4-(((2R)-2-(2,6-dichlorophenyl)-2-hydroxyethyl)(2,2-dimethylpropyl)carbamoyl)-5-(trifluoromethyl)-1H-pyrazol-1-yl)cyclohexanecarboxylic acid], the figure is 79.4 nM. To `CC(C)(C)CN(C[C@@H](O)c1c(Cl)cccc1Cl)C(=O)c1cnn([C@H]2CC[C@H](C(=O)O)CC2)c1C(F)(F)F` [Example 574, trans-4-(4-(((2S)-2-(2,6-dichlorophenyl)-2-hydroxyethyl)(2,2-dimethylpropyl)carbamoyl)-5-(trifluoromethyl)-1H-pyrazol-1-yl)cyclohexanecarboxylic acid] belongs 2570 nM. Take `COc1cc(Cl)c(C(=O)CN(C(=O)c2cnn([C@H]3CC[C@H](C(=O)O)CC3)c2C(F)(F)F)C2CCC(C)(C)CC2)c(Cl)c1` [Example 575, trans-4-(4-((2-(2,6-dichloro-4-methoxyphenyl)-2-oxoethyl)(4,4-dimethylcyclohexyl)carbamoyl)-5-(trifluoromethyl)-1H-pyrazol-1-yl)cyclohexanecarboxylic acid]: the IC50 was 17 nM. On to `C[C@]1(C(=O)O)CC[C@H](n2ncc(C(=O)N3CC4(CC=CC4)C[C@@H]3Cc3c(Cl)cncc3Cl)c2C(F)(F)F)CC1` [Example 576, trans-4-(4-(((3R)-3-((3,5-dichloro-4-pyridinyl)methyl)-2-azaspiro[4.4]non-7-en-2-yl)carbonyl)-5-(trifluoromethyl)-1H-pyrazol-1-yl)-1-methylcyclohexanecarboxylic acid], for which the IC50 is 34.7 nM. As for `CC1(CN(CC(=O)c2c(Cl)cncc2Cl)C(=O)c2cnn([C@H]3CC[C@](C)(C(=O)O)CC3)c2C(F)(F)F)CC1` [Example 577, trans-4-(4-((2-(3,5-dichloro-4-pyridinyl)-2-oxoethyl)((1-methylcyclopropyl)methyl)carbamoyl)-5-(trifluoromethyl)-1H-pyrazol-1-yl)-1-methylcyclohexanecarboxylic acid], the figure is 11.7 nM; as for `CC1(C)CC[C@@H]1N(CC(=O)c1c(Cl)cncc1Cl)C(=O)c1cnn([C@H]2CC[C@](C)(C(=O)O)CC2)c1C(F)(F)F` [Example 578, trans-4-(4-((2-(3,5-dichloro-4-pyridinyl)-2-oxoethyl)((1S)-2,2-dimethylcyclobutyl)carbamoyl)-5-(trifluoromethyl)-1H-pyrazol-1-yl)-1-methylcyclohexanecarboxylic acid], 100 nM. For the compound `COc1cc(Cl)c(C(=O)CN(C(=O)c2cnn([C@H]3CC[C@](C)(C(=O)O)CC3)c2C(F)(F)F)C2CCC(C)(C)CC2)c(Cl)c1` [Example 579, trans-4-(4-((2-(2,6-dichloro-4-methoxyphenyl)-2-oxoethyl)(4,4-dimethylcyclohexyl)carbamoyl)-5-(trifluoromethyl)-1H-pyrazol-1-yl)-1-methylcyclohexanecarboxylic acid], the IC50 is 4.27 nM.

The values are drawn from US9365522B2, “Pyrazole amide derivative” (AMGEN INC., priority 2015, dated 2016).
